Laboratory results taken from patent US12492202B2, “Macrocyclic PAD4 inhibitors useful as immunosuppressant” (BRISTOL-MYERS SQUIBB COMPANY, priority 2020, dated 2025).

Target: human PAD4 (hPAD4) (Homo sapiens (Human), UniProt Q9UM07)
Test: RFMS Human PAD4 Functional Assay
Format: biochemical
Conditions: rapid-fire mass spectrum (RFMS) assay; 5 nM hPAD4 enzyme, 250 μM BAEE, 30 min preincubation at 37° C.

Sequence of human PAD4 (hPAD4) (Q9UM07 whole entry): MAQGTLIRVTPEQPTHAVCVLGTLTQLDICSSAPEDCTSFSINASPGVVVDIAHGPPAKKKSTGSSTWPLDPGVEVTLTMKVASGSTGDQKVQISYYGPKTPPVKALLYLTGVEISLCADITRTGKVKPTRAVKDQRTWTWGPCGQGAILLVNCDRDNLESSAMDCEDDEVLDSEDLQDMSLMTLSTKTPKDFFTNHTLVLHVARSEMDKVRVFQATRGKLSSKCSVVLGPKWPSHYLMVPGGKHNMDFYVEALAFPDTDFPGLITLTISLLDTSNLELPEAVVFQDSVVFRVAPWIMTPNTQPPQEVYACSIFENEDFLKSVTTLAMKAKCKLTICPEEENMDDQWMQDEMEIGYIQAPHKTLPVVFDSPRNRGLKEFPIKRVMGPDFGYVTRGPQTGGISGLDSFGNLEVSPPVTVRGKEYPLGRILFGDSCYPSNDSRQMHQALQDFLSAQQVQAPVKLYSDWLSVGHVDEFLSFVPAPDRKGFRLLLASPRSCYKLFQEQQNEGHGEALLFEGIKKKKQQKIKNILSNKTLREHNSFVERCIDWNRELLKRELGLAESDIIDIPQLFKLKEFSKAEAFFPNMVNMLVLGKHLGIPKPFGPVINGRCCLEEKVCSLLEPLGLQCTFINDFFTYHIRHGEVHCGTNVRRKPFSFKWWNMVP

Row | SMILES | IC50
1 | COc1cc(C(=O)N2CC3CCC2[C@@H]3N)cc2nc3n(c12)Cc1cc(C(N)=O)cc(c1)-c1ccccc1CCCCn1c-3cc2cccnc21 (stereo partly drawn) [Example 29, 2^5-((1R,4R,7R)-7-amino-2-azabicyclo[2.2.1]heptane-2-carbonyl)-2^7-methoxy-1^1H,2^1H-1,2(2,1)-dipyrrolo[2,3-b]pyridina-4(1,3),5(1,2)-dibenzenacyclononaphane-4^5-carboxamide] | 59 nM
2 | COc1cc(C(=O)N2C[C@H](N)C[C@@H](F)C2)cc2nc3n(c12)Cc1cncc(c1)-c1ccccc1CCCCn1c-3cc2cccnc21 [Example 30, ((3R,5R)-3-amino-5-fluoropiperidin-1-yl)(2^7-methoxy-1^1H, 2^1H-1,2(2,1)-dipyrrolo[2,3-b]pyridina-4(3,5)-pyridina-5(1,2)-benzenacyclononaphane-2^5-yl)methanone] | 4 nM
3 | COc1cc(C(=O)N2CC3CCC2[C@@H]3N)cc2nc3n(c12)Cc1cncc(c1)-c1ccccc1CCCCn1c-3cc2cccnc21 (stereo partly drawn) [Example 31, ((1R,4R,7R)-7-amino-2-azabicyclo[2.2.1]heptan-2-yl)(2^7-methoxy-1^1H,2^1H-1,2(2,1)-dipyrrolo[2,3-b]pyridina-4(3,5)-pyridina-5(1,2)-benzenacyclononaphane-2^5-yl)methanone] | 10 nM
4 | COc1cc(C(=O)N2CC3CCC2[C@@H]3N)cc2nc3n(c12)Cc1cc(ccn1)-c1ccccc1CCCCn1c-3cc2cccnc21 (stereo partly drawn) [Example 32, ((1R,4R,7R)-7-amino-2-azabicyclo[2.2.1]heptan-2-yl)(2^7-methoxy-1^1H,2^1H-1,2(2,1)-dipyrrolo[2,3-b]pyridina-4(2,4)-pyridina-5(1,2)-benzenacyclononaphane-2^5-yl)methanone] | 112 nM

The remaining lines, values ahead:

Row | IC50 | SMILES
5 | 120 nM | COc1cc(C(=O)N2C[C@H](N)C[C@@H](F)C2)cc2nc3n(c12)Cc1cccc(c1)-c1ccccc1OCCCn1c-3cc2cccnc21 [Example 33, ((3R,5R)-3-amino-5-fluoropiperidin-1-yl)(2^7-methoxy-1^1H,2^1H-6-oxa-1,2(2,1)-dipyrrolo[2,3-b]pyridina-4(1,3),5(1,2)-dibenzenacyclononaphane-2^5-yl)methanone]
6 | 30 nM | COc1cc(C(=O)N2CC3CCC2[C@@H]3N)cc2nc3n(c12)Cc1cccc(c1)-c1ccccc1OCCCn1c-3cc2cccnc21 (stereo partly drawn) [Example 34, ((1R,4R,7R)-7-amino-2-azabicyclo[2.2.1]heptan-2-yl)(2^7-methoxy-1^1H,2^1H-6-oxa-1,2(2,1)-dipyrrolo[2,3-b]pyridina-4(1,3),5(1,2)-dibenzenacyclononaphane-2^5-yl)methanone]
7 | 14 nM | COc1cc(C(=O)N2C[C@H](N)C[C@@H](F)C2)cc2nc3n(c12)Cc1cncc(c1)-c1ccccc1OCCCn1c-3cc2cccnc21 [Example 35, ((3R,5R)-3-amino-5-fluoropiperidin-1-yl)(2^7-methoxy-1^1H,2^1H-6-oxa-1,2(2,1)-dipyrrolo[2,3-b]pyridina-4(3,5)-pyridina-5(1,2)-benzenacyclononaphane-2^5-yl)methanone]
8 | 7 nM | COc1cc(C(=O)N2CC3CCC2[C@@H]3N)cc2nc3n(c12)Cc1cncc(c1)-c1ccccc1OCCCn1c-3cc2cccnc21 (stereo partly drawn) [Example 36, ((1R,4R,7R)-7-amino-2-azabicyclo[2.2.1]heptan-2-yl)(2^7-methoxy-1^1H,2^1H-6-oxa-1,2(2,1)-dipyrrolo[2,3-b]pyridina-4(3,5)-pyridina-5(1,2)-benzenacyclononaphane-2^5-yl)methanone]
9 | 30 nM | COc1cc(C(=O)N2C[C@H]3CC[C@@H]2[C@@H]3N)cc2nc3n(c12)CCC(=O)Nc1ccccc1OCCCn1c-3cc2cccnc21 [Example 40, 21-((1R,4R,7R)-7-amino-2-azabicyclo[2.2.1]heptane-2-carbonyl)-19-methoxy-7,8,16,17-tetrahydro-6H-benzo[b]benzo[4,5]imidazo[1,2-h]pyrido[3′,2′:4,5]pyrrolo[2,1-j][1]oxa[4,8,11]triazacyclotetradecin-15(14H)-one]
